{"source": "patent US6884792B2", "about": "“Bretylium compositions and kits and their use in preventing and treating cardiovascular conditions” (priority 1999, dated 2005)", "key": {"Mongrel dogs": {"tested_on": "Mongrel dogs", "assay": "Oral bretylium-tosylate/facilitating-anion combinations: VFT and EVRP", "format": "in vivo", "details": "dog; 50 milliamps", "experimental": "A catheter electrode was passed under fluoroscopic observation via the jugular vein into the apex of the right ventricle and screwed into place in the myocardium of the right ventricle. […] After the control VFT and EVRP were measured, the compositions were orally administered in capsule form via a stomach tube. […] The VFT and EVRP were measured at various times following this administration. […] See also FIGS. 8-10."}, "dogs [1]": {"tested_on": "dogs", "assay": "VFT 1-5 hours after injection of bretylium tosylate and/or β-receptor blockers", "format": "in vivo, dog", "description": "The increase in efficacy of the bretylium cation afforded by administering the bretylium cation in combination with a β-receptor blocker was tested by administering via injection bretylium tosylate alone, various β-receptor blockers alone, and various combinations of bretylium tosylate and β-receptor blockers to dogs, and then measuring the ventricular fibrillation threshold of the dogs 1-5 hours after drug administration."}, "dog": {"tested_on": "dog", "details": "orally administered to a dog"}, "mongrel dog [2]": {"tested_on": "mongrel dog", "experimental": "At time zero, a 5 milliamp stimulus was applied and a ventricular fibrillation threshold (VFT) was established.\nAt 1 hour and 20 minutes, the dog was given a 50 mg/kg dose of bretylium lauryl sulfate salt.\nAt three hours and twenty minutes, the dog's left anterior coronary artery was ligated to attempt to induce ventricular fibrillation by coronary occlusion.\nNext, at three hours and thirty-seven minutes, 50 milliamps (the maximum current) was applied in an attempt to induce ventricular fibrillation and/or atrial fibrillation."}, "mongrel dog [3]": {"tested_on": "mongrel dog", "assay": "Electrically induced atrial fibrillation, intravenous administration", "format": "in vivo", "details": "single intravenous dose, 15 mg bretylium tosylate per kg", "description": "This electrode catheter delivered stimulating shocks consisting of a train of square wave pulses of 1 msec duration at 60 Hz. Atrial fibrillation was induced at a current of 6 milliamps.\nDefibrillation was first attempted using a single dose of bretylium tosylate (Arnar-Stone, McGaw Park, Ill.) administered intravenously (the dose corresponded to 15 mg of bretylium tosylate per kg of the recipient).\nSubsequently, a composition containing bretylium tosylate and aspirin was administered intravenously into the jugular vein. This composition was prepared using a commercially available tablet containing aspirin. The aspirin tablet was dissolved in warm water and filtered through a fine surgical gauze pad (to remove the bulk of the binder in the tablet). The resulting aspirin filtrate was then combined with an approximately equimolar amount of bretylium tosylate dissolved in 5% dextrose in water. Approximately 20 ml of this aqueous solution was injected into jugular vein of the atrially fibrillating dog (this dose corresponded to roughly 15 mg of bretylium tosylate per kg of the recipient and 6.5 mg of aspirin per Kg recipient)."}, "dogs [4]": {"tested_on": "dogs"}, "[5]": {"experimental": "To measure the partition coefficient for a facilitating anion in the presence of a bretylium compound, an acidified aqueous solution of the bretylium compound with a non-facilitating anion (e.g., tosylate, bromide or chloride) is first prepared. Sodium bicarbonate and a salt comprising the facilitating anion to be tested are then added to the aqueous solution. The salt comprising the facilitating anion should be added in an amount sufficient to provide about a 1:1 molar ratio of the facilitating anion to the bretylium cation. The sodium bicarbonate is provided in an amount sufficient to produce a preselected pH value. An equal volume of n-octanol is then added to this solution. The solution is shaken. The mixture is centrifuged to separate an octanol-rich layer and an aqueous-rich layer, and the distribution ratio of the bretylium cation between the octanol-rich phase and the aqueous-rich phase (that is, the partition coefficient) may be measured. This analytical approach is believed to provide a suitable model for evaluating the bioavailability of the bretylium cation when utilized with a facilitating anion.\nSeveral formulations of the present invention were tested using an n-octanol/aqueous buffer system to measure the partition coefficients for the bretylium cation in the presence of the facilitating anions of those formulations. An acidified aqueous solution of bretylium tosylate was first prepared. Sodium bicarbonate and a salt comprising the facilitating anion to be tested was then added to the aqueous solution. The salt comprising the facilitating anion was added in an amount sufficient to provide a 1:1 molar ratio of the facilitating anion to the bretylium cation. The sodium bicarbonate was provided in an amount sufficient to produce one of 4 preselected pH values. An equal volume of n-octanol was then added to this solution and the solution was shaken. The mixture was centrifuged to separate an octanol layer and an aqueous layer, and the distribution ratio of the bretylium cation between the octanol-rich phase and the aqueous-rich phase (that is, the partition coefficient) was measured. This analytical approach provides a suitable model for evaluating the bioavailability of the bretylium cation in the compositions tested.\nThe aqueous bretylium tosylate solutions used in the procedure were prepared in the following manner. An amount of one of the buffer solutions described below (3.0 ml when the most acidic buffer solution was used, and 4.0 ml when the other 3 buffer solutions were used) was transferred to a beaker or an Erlenmeyer flask by pipette. To the buffer solution was added 50 mg of bretylium tosylate per ml of buffer solution and an equimolar amount of the sodium salt of the facilitating anion. For example, where the facilitating anion tested was di(2-ethylhexyl)sulfosuccinate, 54 mg of sodium di(2-ethylhexyl)sulfosuccinate was added per ml of buffer solution. […] Test solutions comprising other facilitating agents were prepared in a similar manner.\nEach of the pharmaceutical compositions was tested using each of the following sodium bicarbonate buffer systems:\nThe first buffer solution was prepared by dissolving 1.0 g of sodium bicarbonate in 100 ml of 0.95M HCl. A pH meter equipped with a conventional glass electrode and a calomel reference electrode was used to measure the nominal pH of this solution and the other 3 buffer solutions.\nThe second buffer solution was prepared by dissolving 7.5 g of sodium bicarbonate in 100 ml of 0.95M HCl.\nThe third buffer solution was prepared by dissolving 8.0 g of sodium bicarbonate in 100 ml of 0.95M HCl."}, "[6]": {"details": "water/octanol, relative to chloride; cited from earlier work"}, "[7]": {"details": "intravenous, about 20 mg bretylium tosylate per kg"}}, "note": "Where a name gives a salt, the structure may show the parent alone. Read-outs that look alike come from different tables or passages of the source."}
{"compound": "CC[N+](C)(C)Cc1ccccc1Br.O=C([O-])c1ccccc1O", "note": "[Bretylium Salicylate, bretylium salicylate]", "values": [{"measurement": "ventricular or atrial fibrillation despite maximum electrical stimulation", "setting": "Mongrel dogs", "value": "did not occur"}]}
{"compound": "CC(C)NCC(O)COc1ccc(CC(N)=O)cc1", "note": "(centres unmarked) [atenolol]", "values": [{"measurement": "Mean % Increase in VFT", "setting": "dogs [1]; per kg: 0.05 mg atenolol, no bretylium, 1-5 hours", "value": "330% ± 210%"}]}
{"compound": "CCCCCCCCCCCCOS(=O)(=O)[O-].CC[N+](C)(C)Cc1ccccc1Br", "note": "[bretylium lauryl sulfate salt, bretylium lauryl sulfate]", "values": [{"measurement": "antifibrillatory activity", "setting": "dog", "value": "active antifibrilant"}, {"measurement": "ventricular or atrial fibrillation despite maximum electrical stimulation", "setting": "Mongrel dogs", "value": "did not occur"}, {"measurement": "rhythm 46 minutes after administration despite attempts to reinitiate atrial fibrillation with electrical stimulation", "setting": "mongrel dog [2]; FIG. 8 legend", "value": "maintained a normal sinus rhythm"}, {"measurement": "fibrillation induced by electrical stimulation at 50 milliamps (maximum current)", "setting": "mongrel dog [2]; at 3 h 37 min of experiment", "value": "No fibrillation (atrial or ventricular) could be induced"}, {"measurement": "time after dose at which atrial fibrillation ceased entirely", "setting": "mongrel dog [2]; dog, in vivo, 50 mg/kg", "value": 19, "unit": "min"}, {"measurement": "time after dose to periods of normal sinus rhythm", "setting": "mongrel dog [2]; dog, in vivo, 50 mg/kg", "value": "Approximately 18 minutes"}, {"measurement": "ventricular fibrillation after release of the coronary occlusion", "setting": "mongrel dog [2]; following two minutes after release at 3 h 35 min", "value": "no ventricular fibrillation was observed"}, {"measurement": "ventricular fibrillation on ligation of left anterior coronary artery", "setting": "mongrel dog [2]; ligated at 3 h 20 min of experiment, 2 h after 50 mg/kg dose", "value": "No ventricular fibrillation was observed"}]}
{"compound": "CC[N+](C)(C)Cc1ccccc1Br.Cc1ccc(S(=O)(=O)[O-])cc1", "note": "[bretylium tosylate, 2-bromobenzylethyldimethylammonium p-toluenesulfonate, reference compound]", "values": [{"measurement": "effect on atrial fibrillation", "setting": "mongrel dog [3]", "value": "No effect"}, {"measurement": "Mean % Increase in VFT", "setting": "dogs [1]; per kg: 20 mg bretylium tosylate, no β-receptor blocker, 1-5 hours after administration", "value": "100-200% (no standard"}, {"measurement": "time after administration at which a substantial increase in ventricular fibrillation threshold began", "setting": "dogs [4]; [7]", "value": "12 to 15", "unit": "min"}, {"measurement": "time after administration of peak increase in ventricular fibrillation threshold", "setting": "dogs [4]; [7]", "value": "About 3 hours"}, {"measurement": "PARTITION COEFFICIENT", "setting": "[5]; pH 0.8", "value": 0.33}, {"measurement": "PARTITION COEFFICIENT", "setting": "[5]; pH 2.1", "value": 0.48}, {"measurement": "PARTITION COEFFICIENT", "setting": "[5]; pH 5.5", "value": 0.45}, {"measurement": "PARTITION COEFFICIENT", "setting": "[5]; pH 7.7", "value": 0.49}]}
{"compound": "CCCCC(CC)COP(=O)(O)OCC(CC)CCCC", "note": "(centres unmarked) [di(2-ethylhexyl)phosphate]", "values": [{"measurement": "PARTITION COEFFICIENT", "setting": "[5]; pH 0.8", "value": 0.35}, {"measurement": "PARTITION COEFFICIENT", "setting": "[5]; pH 2.2", "value": 0.49}, {"measurement": "PARTITION COEFFICIENT", "setting": "[5]; pH 5.5", "value": 0.51}, {"measurement": "PARTITION COEFFICIENT", "setting": "[5]; pH 7.7", "value": 2.33}]}
{"compound": "CCCCC(CC)COC(=O)CC(C(=O)OCC(CC)CCCC)S(=O)(=O)O", "note": "(centres unmarked) [di(2-ethylhexyl)sulfosuccinate]", "values": [{"measurement": "PARTITION COEFFICIENT", "setting": "[5]; pH 5.5", "value": 4.16}, {"measurement": "PARTITION COEFFICIENT", "setting": "[5]; pH 5.6", "value": 4.94}, {"measurement": "PARTITION COEFFICIENT", "setting": "[5]; pH 7", "value": 5.03}, {"measurement": "PARTITION COEFFICIENT", "setting": "[5]; pH 7.7", "value": 3.61}]}
{"compound": "COC(=O)CCc1ccc(OCC(O)CNC(C)C)cc1", "note": "(centres unmarked) [esmolol]", "values": [{"measurement": "Mean % Increase in VFT", "setting": "dogs [1]; per kg: 25 to 300 μg esmolol, no bretylium, 1-5 hours", "value": "no significant increase"}]}
{"compound": "COCCc1ccc(OCC(O)CNC(C)C)cc1", "note": "(centres unmarked) [metoprolol]", "values": [{"measurement": "Mean % Increase in VFT", "setting": "dogs [1]; per kg: 0.05 mg metoprolol, no bretylium, 1-5 hours", "value": "96% ± 70%"}]}
{"compound": "CC(C)NCC(O)COc1cccc2ccccc12", "note": "(centres unmarked) [propranolol]", "values": [{"measurement": "Mean % Increase in VFT", "setting": "dogs [1]; per kg: 0.075 mg propranolol, no bretylium, 1-5 hours", "value": "110% ± 40%"}, {"measurement": "increase in the ventricular fibrillation threshold", "setting": "dogs [4]; intravenous propranolol alone, 0.05 to 0.5 mg/kg", "value": "110%±40%"}]}
{"compound": "Cc1ccc(S(=O)(=O)O)cc1", "note": "[tosylate anion, tosylate]", "values": [{"measurement": "organic/aqueous phase distribution constant (K)", "setting": "[6]", "value": "about 320"}]}
{"compound": "lauryl sulfate", "values": [{"measurement": "PARTITION COEFFICIENT", "setting": "[5]; n-octanol/buffer, nominal pH 0.8, 1:1 molar facilitating anion:bretylium tosylate", "value": 1.91}, {"measurement": "PARTITION COEFFICIENT", "setting": "[5]; n-octanol/buffer, nominal pH 2.2, 1:1 molar facilitating anion:bretylium tosylate", "value": 3.54}, {"measurement": "PARTITION COEFFICIENT", "setting": "[5]; n-octanol/buffer, nominal pH 5.5, 1:1 molar facilitating anion:bretylium tosylate", "value": 3.71}, {"measurement": "PARTITION COEFFICIENT", "setting": "[5]; n-octanol/buffer, nominal pH 7.0, 1:1 molar facilitating anion:bretylium tosylate", "value": 4.01}]}
